Test [1] has as its system group II mGlu receptors (mGlu2 and mGlu3). Particulars: cited from earlier work.
The test system is the same in test [2]. Particulars: CFS model; cited from earlier work.
Test [3] has as its system mGlu2/3 receptor. To be noted: rat forced swim test, normal animals; cited from earlier work.
The conditions of test [4]: C57B16/J mice, FST; cited from earlier work.
The test system of test [5] is mGlu2/3 receptor. To be noted: mouse tail-suspension test, normal animals; cited from earlier work.
The subject of test [6] is mGlu2. Particulars: cited from earlier work.
The test system of test [7] is group II mGlu receptors. To be noted: treated mice; cited from earlier work.
In test [8] the test system is central mGlu2 and mGlu3 receptors. Particulars: target-specific manner; cited from earlier work.
The conditions of test [9]: cited from earlier work; for activity in the tail suspension test: Helpless (H) mice.
The target in test [10] is T1, human mGlu3 (Homo sapiens, UniProt Q14832).
T1 construct: expressed in transfected cells; host or cells: HEK-293 stably co-expressing GIRK channels
T1 sequence (Q14832 23-879): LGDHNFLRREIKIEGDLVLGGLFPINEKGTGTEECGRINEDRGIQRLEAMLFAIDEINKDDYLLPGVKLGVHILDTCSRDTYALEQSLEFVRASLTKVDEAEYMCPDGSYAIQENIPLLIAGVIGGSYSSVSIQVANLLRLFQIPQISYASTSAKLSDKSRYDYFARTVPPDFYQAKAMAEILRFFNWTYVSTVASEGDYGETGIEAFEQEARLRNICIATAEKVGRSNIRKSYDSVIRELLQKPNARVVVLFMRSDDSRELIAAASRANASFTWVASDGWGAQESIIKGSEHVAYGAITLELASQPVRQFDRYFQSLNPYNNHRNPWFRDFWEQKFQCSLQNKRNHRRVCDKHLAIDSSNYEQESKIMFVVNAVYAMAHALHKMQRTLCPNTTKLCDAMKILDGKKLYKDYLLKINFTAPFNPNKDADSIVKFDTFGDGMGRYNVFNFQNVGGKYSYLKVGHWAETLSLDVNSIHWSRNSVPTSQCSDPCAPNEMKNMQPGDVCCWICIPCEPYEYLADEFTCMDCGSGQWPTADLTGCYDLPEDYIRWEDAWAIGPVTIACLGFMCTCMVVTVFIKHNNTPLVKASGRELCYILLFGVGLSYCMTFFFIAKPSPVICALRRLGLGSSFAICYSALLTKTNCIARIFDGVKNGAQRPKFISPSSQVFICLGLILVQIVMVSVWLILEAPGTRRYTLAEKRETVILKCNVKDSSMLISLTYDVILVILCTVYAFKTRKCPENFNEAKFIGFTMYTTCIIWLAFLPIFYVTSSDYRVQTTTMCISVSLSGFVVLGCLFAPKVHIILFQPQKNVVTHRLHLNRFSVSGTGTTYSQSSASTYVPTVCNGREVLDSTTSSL
Kind of test: mGlu GIRK cell-based thallium flux assay, human mGlu3. Particulars: HEK-293 cells co-expressing human mGlu3 and GIRK, EC80 glutamate, single experiment. The protocol:
Human embryonic kidney (HEK-293) cell lines stably co-expressing human or rat mGlu2 and G protein-coupled inwardly rectifying potassium (GIRK) channels, or human mGlu3 and GIRK, were used for in vitro evaluation of compound activity in thallium flux assay using a fluorescent thallium indicator dye.
The day before the assay, GIRK cells co-expressing human mGlu3, human or rat mGlu2, as described above, were plated in black-walled, clear-bottomed, amine-coated 384-well plates at a density of 15,000 cells/[…]/well in the assay medium (glutamine-depleted basal DMEM supplemented with 10% dialyzed FBS, 20 mM HEPES, 1 mM sodium pyruvate). Cells were incubated at 37° C. in the presence of 5% CO2. The next day, assay buffer (Hanks balanced salt solution, 20 mM HEPES, 4.16 mM sodium bicarbonate, pH 7.2) was prepared to dilute compounds and Thallos AM fluorescent dye solution. The 2× Thallos dye solution (final concentration 0.34 μM to the cells) was prepared by mixing the dye stock (2.97 mM in DMSO) to 1:1 with 10% pluronic acid before adding to the assay buffer. Cells were washed with assay buffer using a microplate washer to remove the medium, resulting in 20 μL of buffer remaining in each well. […] During the cell dye loading incubation period, a 10-point concentration serial dilution of compound was created from a 10 mM DMSO compound stock by performing a 1:3 serial dilution in DMSO using the Bravo liquid handler. The 2× compound plate was generated by transferring 0.24 μL of the diluted compound in each well to a daughter plate using an Echo acoustic liquid handler. This is further diluted in 40 μL assay buffer, resulting in a range from […] to 1.5 nM final concentration in the assay. The agonist plate (5×) was prepared to include EC80 glutamate concentration (a concentration to elicit 80% of a maximally effective glutamate concentration) in thallium buffer (125 mM sodium bicarbonate, 1 mM magnesium sulfate, 1.8 mM calcium sulfate, 5 mM glucose, 10 mM HEPES, pH 7.2, 12.5 mM thallium sulfate).
After dye-loading, cell plates were washed with assay buffer to remove excess extracellular dye using a microplate washer, resulting in 20 μL of buffer remaining in each well. After a ten-minute equilibration period, cell, compound and agonist plates were loaded into a Hamamatsu μCell kinetic imaging plate reader equipped with liquid handler to monitor fluorescence changes at 480 nm excitation and 540 nm emission settings. Briefly, after collection of baseline fluorescence, 20 μL of compound was added and incubated for two minutes and twenty seconds. This is immediately followed by adding 10 μL of glutamate-thallium buffer to the wells containing compound. The fluorescent signal was monitored an additional 2.5 minutes after the glutamate addition. Multiple reference wells containing no compound received either no glutamate (for a baseline reference), EC80 glutamate, or ECmax glutamate (for normalization to maximum response). […] Each compound concentration series occurred one time in each plate, and replicates from two or three plates were used in each experimental run. Thallium solutions were handled and disposed of according to guidelines from the Vanderbilt University Chemical Safety department.
Data were normalized using a static ratio function (F/F0) by dividing every fluorescent measurement by the initial fluorescent value for the corresponding well. The increase in signal resulting from the glutamate/thallium addition of the second add was measured by determining the slope from 3 seconds to 13 seconds after the addition. The average of all baseline slopes (no compound, no glutamate) was determined and this value was subtracted from all other slope values. The average of all ECmax slopes was determined and this value was used to normalize the baseline-corrected slopes to a percent max value (% Emax).

The target in test [11] is T2, human mGlu2 (Homo sapiens, UniProt Q14416).
T2 construct: expressed in transfected cells; host or cells: HEK-293 stably co-expressing GIRK channels
T2 sequence (Q14416 19-872): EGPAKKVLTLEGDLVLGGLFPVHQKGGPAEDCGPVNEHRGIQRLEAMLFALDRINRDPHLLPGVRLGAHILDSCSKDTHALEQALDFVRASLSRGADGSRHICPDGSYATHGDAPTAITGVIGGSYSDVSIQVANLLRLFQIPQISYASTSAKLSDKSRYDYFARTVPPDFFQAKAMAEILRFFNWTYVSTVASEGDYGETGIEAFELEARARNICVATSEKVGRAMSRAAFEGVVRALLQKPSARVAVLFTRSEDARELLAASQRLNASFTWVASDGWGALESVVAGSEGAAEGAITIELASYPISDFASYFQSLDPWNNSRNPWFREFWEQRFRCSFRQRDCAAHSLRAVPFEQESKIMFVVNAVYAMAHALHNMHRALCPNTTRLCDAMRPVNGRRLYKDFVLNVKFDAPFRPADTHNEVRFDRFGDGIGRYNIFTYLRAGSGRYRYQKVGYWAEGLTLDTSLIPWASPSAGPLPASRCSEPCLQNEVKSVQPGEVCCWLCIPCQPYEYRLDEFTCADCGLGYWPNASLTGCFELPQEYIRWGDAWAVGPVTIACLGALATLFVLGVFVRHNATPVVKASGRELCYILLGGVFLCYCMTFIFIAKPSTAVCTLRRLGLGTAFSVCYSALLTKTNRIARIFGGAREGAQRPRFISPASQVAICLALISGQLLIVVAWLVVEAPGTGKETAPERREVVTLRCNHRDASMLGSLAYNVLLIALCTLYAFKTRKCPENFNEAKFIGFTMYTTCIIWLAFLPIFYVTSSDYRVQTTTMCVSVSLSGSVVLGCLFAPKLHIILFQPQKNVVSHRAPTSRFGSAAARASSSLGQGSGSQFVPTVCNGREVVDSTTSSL
Put plainly: mGlu GIRK cell-based thallium flux assay, human mGlu2. To be noted: HEK-293 cells co-expressing human mGlu2 and GIRK, EC80 glutamate, single experiment.

Consider 23 compounds from US20260226019A1, “NEGATIVE ALLOSTERIC MODULATORS OF METABOTROPIC GLUTAMATE RECEPTOR 2” (Vanderbilt University, priority 2023, published 2026).

Structures are written as SMILES. pIC50: −log10 of the molar value. Where two headings read alike, the source gives them in different places.

Regarding `CCCCCCCOC(=O)[C@@]1(F)[C@@H]2C[C@@H](OCc3ccc(Cl)c(Cl)c3)[C@@](N)(C(=O)O)[C@@H]21` [BCI-838], in test [1] (three months of treatment), the “Dutch APP transgene-associated learning and memory impairment” value was “reversed”; the anxiolytic effects entry is “anxiolytic effects”. Further, in test [1] (three months of treatment, two AD mouse models), the “levels of monomeric and oAβ peptides in the hippocampus and cortex” value is recorded as “decreased”. Moreover, in test [1] (wild-type and Alzheimer's diseased mice, 3 months), the “hippocampal progenitor cell proliferation” value is “stimulated”.

With `COCCCC/C(=N\OCCN)c1ccc(C(F)(F)F)cc1` [fluvoxamine], in test [2], the freezing behavior result was “significantly decreased”.

For `N[C@](CC1c2ccccc2Oc2ccccc21)(C(=O)O)[C@H]1C[C@@H]1C(=O)O` [LY341495], the antidepressant-like effects entry in test [3] and in [5] was “Antidepressant-like effects” each time. The immobility time result in test [4] is on record as “dose-dependently reduced”. Moreover, in [6], the “LY566332 amplification of AP-induced neurodegeneration” value is listed as “prevented”. Moreover, the marble-burying behavior result in [7] is recorded as “significantly reduce”. In addition, the “hypolocomotor effect of mGlu2/3 agonist (LY379268)” value in [8] was “achieved the same result”. For the same compound, the “activity in the tail suspension test” value in [9] was “active”. In addition, the antidepressant effect result in test [9] (helpless mice, acute administration) is “potent antidepressant effect”.

A word on the pIC50: it is the IC50 on a negative log10 scale, so that one unit is a factor of ten. Regarding `CN1CCCC(c2cc(-c3ccc(F)cc3F)cc3c2CNC3=O)C1` (stereo not shown) [Compound B3, 6-(2,4-difluorophenyl)-4-(1-methylpiperidin-3-yl)isoindolin-1-one], the pIC50 in test [10] was < 5.00; in [11], 5.83.

As for `O=C1NCc2c1cc(-c1ccc(F)cc1F)cc2-c1ccc(C2CC2)nc1` [Compound 36, 4-(6-cyclopropylpyridin-3-yl)-6-(2,4-difluorophenyl)isoindolin-1-one], the pIC50 is < 5.00 in test [10] and 5.91 in [11].

In the case of `Cc1ccc(-c2cc(-c3ccc(F)cc3F)cc3c2CNC3=O)cn1` [Compound 5, 6-(2,4-difluorophenyl)-4-(6-methylpyridin-3-yl)isoindolin-1-one], the pIC50 in test [10] is < 5.00; in test [11] it was 7.00.

On to `Cc1nn(CC(C)(C)O)c(C)c1-c1cc(-c2ccc(F)cc2F)cc2c1CNC2=O` [Compound 41, 6-(2,4-difluorophenyl)-4-(1-(2-hydroxy-2-methylpropyl)-3,5-dimethyl-1H-pyrazol-4-yl)isoindolin-1-one], for which the figures for the pIC50 in test [10] and in test [11] were < 5.00 and 6.36, respectively.

Take `O=C1NCc2c1cc(-c1ccc(F)cc1F)cc2N1CCOCC1` [Compound A4, 6-(2,4-difluorophenyl)-4-morpholinoisoindolin-1-one]: the pIC50 in [10] was < 5.00; in test [11], 6.42.

Take `O=C1NCc2c1cc(-c1ccc(F)cc1F)cc2N1CCn2nccc21` [Compound A2, 6-(2,4-difluorophenyl)-4-(2,3-dihydro-1H-imidazo[1,2-b]pyrazol-1-yl)isoindolin-1-one]: the “Human mGlu3 GIRK IC50 (nM)” value in test [10] was “Inactive”. In [11], the pIC50 is 6.66.

Take `CC(C)(O)C1CCN(c2cc(-c3ccc(F)cc3F)cc3c2CNC3=O)C1` (stereo not shown) [Compound A8, 6-(2,4-difluorophenyl)-4-(3-(2-hydroxypropan-2-yl)pyrrolidin-1-yl)isoindolin-1-one]: the “Human mGlu3 GIRK IC50 (nM)” value in test [10] is reported as “Inactive”. Besides, in [11], the pIC50 was 6.19.

For the compound `CCS(=O)(=O)N(Cc1cccnc1)c1cccc(-c2ccc(C#N)cc2)c1` [LY566332], the AP-induced neurodegeneration entry in test [6] is given as “amplified”.

As to `N#CC1CCCN(c2cc(-c3ccc(F)cc3F)cc3c2CNC3=O)C1` (stereo not shown) [Compound A10, 1-(6-(2,4-difluorophenyl)-1-oxoisoindolin-4-yl)piperidine-3-carbonitrile], the values for the pIC50 in test [10] and in test [11] were < 5.00 and 6.41, respectively.

Consider `O=C1NCc2c1cc(-c1ccc(F)cc1F)cc2-c1cnn(C2CCOC2)c1` (stereo not shown) [Compound 63, 6-(2,4-difluorophenyl)-4-(1-(tetrahydrofuran-3-yl)-1H-pyrazol-4-yl)isoindolin-1-one], for which the “Human mGlu3 GIRK IC50 (nM)” value in test [10] is on record as “Inactive”. In test [11], this compound had a pIC50 of 6.69.

Consider `O=C1NCc2c1cc(-c1ccc(F)cc1F)cc2C1CCNC1` (stereo not shown) [Compound B6, 6-(2,4-difluorophenyl)-4-(pyrrolidin-3-yl)isoindolin-1-one], for which the pIC50 in [10] and in test [11] was < 5.00 throughout.

As to `COC1CCCN(c2cc(-c3ccc(F)cc3F)cc3c2CNC3=O)C1` (stereo not shown) [Compound A18, 6-(2,4-difluorophenyl)-4-(3-methoxypiperidin-1-yl)isoindolin-1-one], the negative logarithm of the IC50 (pIC50) in test [10] was 5.01; in test [11], 6.31.

Turning to `O=C1NCc2c1cc(-c1ccc(F)cc1F)cc2N1CCS(=O)(=O)CC1` [Compound A3, 6-(2,4-difluorophenyl)-4-(1,1-dioxidothiomorpholino)isoindolin-1-one], the “Human mGlu3 GIRK IC50 (nM)” value in test [10] is “Inactive”. Besides, the pIC50 in [11] was 5.53.

Consider `CC(C)Cn1nccc1-c1cc(-c2ccc(F)cc2F)cc2c1CNC2=O` [Compound 76, 6-(2,4-difluorophenyl)-4-(1-isobutyl-1H-pyrazol-5-yl)isoindolin-1-one], for which the pIC50 in test [10] was < 5.00; in [11], 6.75.

On to `CC(C)n1nccc1-c1cc(C2=CCC3(CC2)OCCO3)cc2c1CNC2=O` [Compound 87, 4-(1-isopropyl-1H-pyrazol-5-yl)-6-(1,4-dioxaspiro[4.5]dec-7-en-8-yl)isoindolin-1-one], for which the “Human mGlu3 GIRK IC50 (nM)” value in test [10] is “Inactive”. In test [11], this compound showed a pIC50 of 5.42.

With `O=C1NCc2c1cc(-c1ccc(F)cc1F)cc2-c1ccc[nH]c1=O` [Compound 64, 6-(2,4-difluorophenyl)-4-(2-oxo-1,2-dihydropyridin-3-yl)isoindolin-1-one], the “Human mGlu3 GIRK IC50 (nM)” value in test [10] was “Inactive”. The pIC50 in test [11] was 6.53.

For `CN1C(=O)CN=C(c2ccccc2)c2cc(Cl)ccc21` [diazepam], the freezing behavior result in test [2] is on record as “significantly decreased”.

Turning to `CC(=O)Nc1ccc(-c2cc(-c3ccc(F)cc3F)cc3c2CNC3=O)cn1` [Compound 34, N-(5-(6-(2,4-difluorophenyl)-1-oxoisoindolin-4-yl)pyridin-2-yl)acetamide], the “Human mGlu3 GIRK IC50 (nM)” value in [10] was “Inactive”. Moreover, the pIC50 in test [11] was 6.73.

`Cc1cc(-c2cccc(C3=Nc4cc(C)c(C(F)(F)F)cc4NC(=O)C3)c2)cc(C)n1` [Compound R04491533]: the immobility time result in test [4] is on record as “dose-dependently reduced”. The “hypolocomotor effect of mGlu2/3 agonist (LY379268)” value in test [8] was “reversed”. For the same compound, the “activity in the tail suspension test” value in test [9] was “active”.

For the compound `O=C1NCc2c1cc(-c1ccc(F)cc1F)cc2-c1cnco1` [Compound 6, 6-(2,4-difluorophenyl)-4-(oxazol-5-yl)isoindolin-1-one], in test [10], the “Human mGlu3 GIRK IC50 (nM)” value is “Inactive”. In test [11], the pIC50 is 7.18.
